pIC50: −log10 of the molar value.

In the first experiment the target is PI3Kα (p85iSH2(461-568)-p110α(21-1068)-His, BV1075) (Homo sapiens (Human), UniProt P42336). The experiment in a line: PI3K KinaseGlo assay, PI3Kalpha. Particulars: KinaseGlo, 1 μM ATP, 10 nM enzyme, 30 mins. In kind it is biochemical. (In general: Kinase-Glo reads ATP consumption through a luciferase reaction.)
Chain of PI3Kα (p85iSH2(461-568)-p110α(21-1068)-His, BV1075) (P42336 other isoform, or with tags, fused parts or gaps): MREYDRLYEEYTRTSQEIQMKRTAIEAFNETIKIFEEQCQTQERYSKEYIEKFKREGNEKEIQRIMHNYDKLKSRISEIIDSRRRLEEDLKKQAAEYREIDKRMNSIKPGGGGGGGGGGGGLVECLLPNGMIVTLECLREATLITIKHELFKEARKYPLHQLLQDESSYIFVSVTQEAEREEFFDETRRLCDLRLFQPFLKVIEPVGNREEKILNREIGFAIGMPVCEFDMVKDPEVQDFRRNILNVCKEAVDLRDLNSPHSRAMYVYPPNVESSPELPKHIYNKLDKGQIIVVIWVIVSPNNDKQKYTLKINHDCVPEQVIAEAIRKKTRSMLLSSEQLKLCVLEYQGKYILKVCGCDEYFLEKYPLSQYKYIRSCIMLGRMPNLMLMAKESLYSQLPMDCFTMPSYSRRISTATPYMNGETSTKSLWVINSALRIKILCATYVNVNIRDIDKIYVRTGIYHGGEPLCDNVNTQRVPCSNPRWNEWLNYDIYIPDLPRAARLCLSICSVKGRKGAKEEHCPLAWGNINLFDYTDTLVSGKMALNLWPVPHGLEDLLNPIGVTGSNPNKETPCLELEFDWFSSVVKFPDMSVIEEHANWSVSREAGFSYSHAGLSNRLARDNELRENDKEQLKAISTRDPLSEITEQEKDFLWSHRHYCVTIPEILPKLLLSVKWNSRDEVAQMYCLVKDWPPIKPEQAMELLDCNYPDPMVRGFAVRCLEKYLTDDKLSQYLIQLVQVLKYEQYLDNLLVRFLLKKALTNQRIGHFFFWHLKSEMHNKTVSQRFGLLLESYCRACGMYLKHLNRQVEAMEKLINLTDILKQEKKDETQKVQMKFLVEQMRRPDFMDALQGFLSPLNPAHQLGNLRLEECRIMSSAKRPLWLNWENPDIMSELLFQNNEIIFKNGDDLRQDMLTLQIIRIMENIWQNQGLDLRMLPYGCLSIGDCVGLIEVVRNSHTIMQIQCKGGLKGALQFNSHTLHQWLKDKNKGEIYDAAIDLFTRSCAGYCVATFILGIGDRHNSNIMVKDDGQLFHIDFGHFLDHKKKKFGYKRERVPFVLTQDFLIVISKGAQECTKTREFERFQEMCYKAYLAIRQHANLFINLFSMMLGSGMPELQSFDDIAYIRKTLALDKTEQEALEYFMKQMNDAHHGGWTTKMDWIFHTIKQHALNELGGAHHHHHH
`CCN(CCOC)c1nccc(-c2sc(NC(=O)N3CCC[C@@]3(C)C(N)=O)nc2C)n1` [Example 101, (S)-2-Methyl-pyrrolidine-1,2-dicarboxylic acid 2-amide 1-[(5-{2-[ethyl-(2-methoxy-ethyl)-amino]-pyrimidin-4-yl}-4-methyl-thiazol-2-yl)-amide]] gave a pIC50 of 7.00.
Still for that read-out and setting: for `COc1ccc(C(C)(C)c2cc(-c3cnc(NC(=O)N4CCC[C@@]4(C)C(N)=O)s3)ccn2)cc1` [Example 124, (S)-2-Methyl-pyrrolidine-1,2-dicarboxylic acid 2-amide 1-[(5-{2-[1-(4-methoxy-phenyl)-1-methyl-ethyl]-pyridin-4-yl}-thiazol-2-yl)-amide]] the value was 7.55; for `CCN(CC)c1nccc(-c2sc(NC(=O)N3CC[C@@H]4C[C@@]43C(N)=O)nc2C)n1` [Example 88, (1S,5R)-2-Aza-bicyclo[3.1.0]hexane-1,2-dicarboxylic acid 1-amide 2-{[5-(2-diethylamino-pyrimidin-4-yl)-4-methyl-thiazol-2-yl]-amide}], 7.12; for `Cc1nc(NC(=O)N2CCC[C@@]2(C)C(N)=O)sc1-c1ccnc(C2(C#N)CC2)c1` [Example 49, S)-2-Methyl-pyrrolidine-1,2-dicarboxylic acid 2-amide 1-({5-[2-(1-cyano-cyclopropyl)-pyridin-4-yl]-4-methyl-thiazol-2-yl}-amide], 7.77.
The same measure, in the same setting: for `Cc1nc(NC(=O)N2C[C@H](O)C[C@@]2(C)C(N)=O)sc1-c1ccnc(C(C)(C)C)n1` [Example 65, (2S,4R)-4-Hydroxy-2-methyl-pyrrolidine-1,2-dicarboxylic acid 2-amide 1-{[5-(2-tert-butyl-pyrimidin-4-yl)-4-methyl-thiazol-2-yl]-amide}] the value was 7.51; for `CSc1nccc(-c2sc(NC(=O)N3CCC[C@@]3(C)C(N)=O)nc2C)n1` [Example 74, (S)-2-Methyl-pyrrolidine-1,2-dicarboxylic acid 2-amide 1-{[4-methyl-5-(2-methylsulphanyl-pyrimidin-4-yl)-thiazol-2-yl]-amide}], 6.89; for `CC(C)(c1cc(-c2cnc(NC(=O)N3CCC[C@@]3(C)C(N)=O)s2)ccn1)C(F)(F)F` [Example 119, S)-2-Methyl-pyrrolidine-1,2-dicarboxylic acid 2-amide 1-({5-[2-(2,2,2-trifluoro-1,1-dimethyl-ethyl)-pyridin-4-yl}-thiazol-2-yl]-amide], 8.10.
`Cc1nc(NC(=O)N2CCC[C@@]2(C)C(N)=O)sc1-c1ccnc(C(C)(C)C(F)(F)F)c1` [Example 47, S)-2-Methyl-pyrrolidine-1,2-dicarboxylic acid 2-amide 1-({4-methyl-5-[2-(2,2,2-trifluoro-1,1-dimethyl-ethyl)-pyridin-4-yl]-thiazol-2-yl}-amide] had a pIC50 of 7.40.
Same read-out and setting: for `Cc1nc(NC(=O)N2C[C@@H](O)C[C@H]2C(N)=O)sc1-c1ccnc(C(C)(C)C)c1` [Example 7, (2S,4S)-4-hydroxy-pyrrolidine-1,2-dicarboxylic acid 2-amide 1-{[5-(2-tert-butyl-pyridin-4-yl)-4-methyl-thiazol-2-yl]-amide}] the value was 7.82; for `Cc1nc(NC(=O)N2CCC[C@@]2(C)C(N)=O)sc1-c1ccnc(C2(C(F)(F)F)CCC2)c1` [Example 48, S)-2-Methyl-pyrrolidine-1,2-dicarboxylic acid 2-amide 1-({4-methyl-5-[2-(1-trifluoromethyl-cyclobutyl)-pyridin-4-yl]-thiazol-2-yl}-amide], 8.30; for `Cc1nc(NC(=O)N2CCC[C@]2(C(N)=O)C(F)F)sc1-c1ccnc(C(C)(C)C)n1` [Example 114, (S)-2-Difluoromethyl-pyrrolidine-1,2-dicarboxylic acid 2-amide 1-{[5-(2-tert-butyl-pyrimidin-4-yl)-4-methyl-thiazol-2-yl]-amide}], 6.89.
Still for that read-out and setting: for `COC[C@@]1(C(N)=O)CCCN1C(=O)Nc1nc(C)c(-c2ccnc(C(C)(C)C)n2)s1` [Example 112, (R)-2-Methoxymethyl-pyrrolidine-1,2-dicarboxylic acid 2-amide 1-{[5-(2-tert-butyl-pyrimidin-4-yl)-4-methyl-thiazol-2-yl]-amide}] the value was 7.31.
The same measure, in the same setting: next, `Cc1nc(NC(=O)N2CCC[C@@]2(C)C(N)=O)sc1-c1ccnc(C2(C(F)(F)F)CC2)c1` [Example 46, S)-2-Methyl-pyrrolidine-1,2-dicarboxylic acid 2-amide 1-({4-methyl-5-[2-(1-trifluoromethyl-cyclopropyl)-pyridin-4-yl]-thiazol-2-yl}-amide]: 8.05; `Cc1nc(NC(=O)N2CCC[C@@]2(C)C(N)=O)sc1-c1ccnc(C2(C)CC2)c1` [Example 40, S)-2-Methyl-pyrrolidine-1,2-dicarboxylic acid 2-amide 1-({4-methyl-5-[2-(1-methyl-cyclopropyl)-pyridin-4-yl]-thiazol-2-yl}-amide]: 7.43; `CC1(c2cc(-c3sc(NC(=O)N4CCC[C@@]4(C)C(N)=O)nc3Cl)ccn2)CC1` [Example 129, S)-2-Methyl-pyrrolidine-1,2-dicarboxylic acid 2-amide 1-({4-chloro-5-[2-(1-methyl-cyclopropyl)-pyridin-4-yl]-thiazol-2-yl}-amide]: 7.62.
`CCN(Cc1ccccc1)c1nccc(-c2sc(NC(=O)N3CCC[C@@]3(C)C(N)=O)nc2C)n1` [Example 98]: the pIC50 is 6.85.
The same measure, in the same setting: next, `Cc1nc(NC(=O)N2CCC[C@@]2(CN(C)C)C(N)=O)sc1-c1ccnc(C(C)(C)C)n1` [Example 107, (R)-2-Dimethylaminomethyl-pyrrolidine-1,2-dicarboxylic acid 2-amide 1-{[5-(2-tert-butyl-pyrimidin-4-yl)-4-methyl-thiazol-2-yl]-amide}]: 7.36; `Cc1nc(NC(=O)N2CC(F)(F)C[C@H]2C(N)=O)sc1-c1ccnc(C2(C)CC2)c1` [Example 59, S)-4,4-Difluoro-pyrrolidine-1,2-dicarboxylic acid 2-amide 1-({4-methyl-5-[2-(1-methyl-cyclopropyl)-pyridin-4-yl]-thiazol-2-yl}-amide]: 7.15.
On the same count and under the same terms, for `[2H]C([2H])([2H])C(c1nccc(-c2sc(NC(=O)N3CCC[C@@]3(C)C(N)=O)nc2C)n1)(C([2H])([2H])[2H])C([2H])([2H])[2H]` [Example 111] the value was 7.28.
Still for that read-out and setting: next, `Cc1nc(NC(=O)N2CCC[C@@]2(C)C(N)=O)sc1-c1ccnc(-n2ccnc2C)n1` [Example 102, S)-2-Methyl-pyrrolidine-1,2-dicarboxylic acid 2-amide 1-({4-methyl-5-[2-(2-methyl-imidazol-1-yl)-pyrimidin-4-yl]-thiazol-2-yl}-amide]: 6.68.
In turn, `CCN(CC)c1cc(-c2cnc(NC(=O)N3CCC[C@@]3(C)C(N)=O)s2)ccn1` [Example 122, (S)-2-Methyl-pyrrolidine-1,2-dicarboxylic acid 2-amide 1-{[5-(2-diethylamino-pyridin-4-yl)-thiazol-2-yl]-amide}] gave a pIC50 of 7.30.
On the same count and under the same terms, next, `Cc1nc(NC(=O)N2C[C@H]3C[C@H]3[C@H]2C(N)=O)sc1-c1ccnc(C(C)(C)C)n1` [Example 11, (1R,2S,5S)-3-aza-bicyclo[3.1.0]hexane-2,3-dicarboxylic acid 2-amide 3-{[5-(2-tert-butyl-pyrimidin-4-yl)-4-methyl-thiazol-2-yl]-amide}]: 7.32; `CCCc1nccn1-c1cc(-c2sc(NC(=O)N3CC(O)CC3C(N)=O)nc2C)ccc1S(C)(=O)=O` [Example 1, (2S,4R)-4-hydroxy-pyrrolidine-1,2-dicarboxylic acid 2-amide 1-({5-[4-methanesulfonyl-3-(2-propyl-imidazol-1-yl)-phenyl]-4-methyl-thiazol-2-yl}-amide)triflouroacetate]: 6.77.
On the same count and under the same terms, next, `Cc1nc(NC(=O)N2CCC[C@@]2(C)C(N)=O)sc1-c1ccnc(CC2CC2)n1` [Example 110, (S)-2-Methyl-pyrrolidine-1,2-dicarboxylic acid 2-amide 1-{[5-(2-cyclopropylmethyl-pyrimidin-4-yl)-4-methyl-thiazol-2-yl]-amide}]: 7.15; `CC1(c2cc(-c3cnc(NC(=O)N4CCC[C@@]4(C)C(N)=O)s3)ccn2)CC1` [Example 117, S)-2-Methyl-pyrrolidine-1,2-dicarboxylic acid 2-amide 1-({5-[2-(1-methyl-cyclopropyl)-pyridin-4-yl]-thiazol-2-yl}amide]: 7.59.
On the same count and under the same terms, next, `Cc1nc(NC(=O)N2CCC[C@@]2(C)C(N)=O)sc1-c1ccnc(N(C)CCN(C)C)n1` [Example 80, (S)-2-Methyl-pyrrolidine-1,2-dicarboxylic acid 2-amide 1-[(5-{2-[(2-dimethylamino-ethyl)-methyl-amino]-pyrimidin-4-yl}-4-methyl-thiazol-2-yl)-amide]]: 6.60.
`Cc1nc(NC(=O)N2C[C@H](O)C[C@H]2C(N)=O)sc1-c1ccnc(C(C)(C)C)n1` [Example 3, (2S,4R)-4-hydroxy-pyrrolidine-1,2-dicarboxylic acid 2-amide 1-{[5-(2-tert-butyl-pyrimidin-4-yl)-4-methyl-thiazol-2-yl]-amide}triflouroacetate] showed a pIC50 of 7.89.
Same read-out and setting: for `COc1ccc(C2(c3cc(-c4sc(NC(=O)N5CCC[C@@]5(C)C(N)=O)nc4C)ccn3)CC2)cc1` [Example 54, (S)-2-Methyl-pyrrolidine-1,2-dicarboxylic acid 2-amide 1-[(5-{2-[1-(4-methoxy-phenyl)-cyclopropyl]-pyridin-4-yl}-4-methyl-thiazol-2-yl)-amide]] the value was 6.72.

Staying with this experiment, now noted: KinaseGlo, 1 μM ATP; alpha vs. delta selectivity table.
For `Cc1nc(NC(=O)N2CC[C@H](O)[C@H]2C(N)=O)sc1-c1ccnc(C(C)(C)C)n1.O=C(O)C(F)(F)F` [Example 9, (2S,3S)-3-hydroxy-pyrrolidine-1,2-dicarboxylic acid 2-amide 1-{[5-(2-tert-butyl-pyrimidin-4-yl)-4-methyl-thiazol-2-yl]-amide}triflouroacetate], the pIC50 is 7.92.

The experiment is the same for the next values; noted with them: ratio of PI3Kdelta IC50 to PI3Kalpha IC50.
For `Cc1nc(NC(=O)N2CC[C@H](O)[C@H]2C(N)=O)sc1-c1ccnc(C(C)(C)C)n1.O=C(O)C(F)(F)F` [Example 9, (2S,3S)-3-hydroxy-pyrrolidine-1,2-dicarboxylic acid 2-amide 1-{[5-(2-tert-butyl-pyrimidin-4-yl)-4-methyl-thiazol-2-yl]-amide}triflouroacetate], the “Selectivity PI3Kalpha vs. PI3Kdelta” value is recorded as 38-fold.

As usually defined, the pIC50 is the IC50 on a negative log10 scale, so that one unit is a factor of ten. Read a low pIC50 as a large IC50.

The record behind these values is patent US8940771B2, “Organic compounds” (Novartis AG, priority 2007, dated 2015).
